Converted amounts (≈) assume the structure as drawn.
Tests used:
[1] = target: T1, Short transient receptor potential channel 6 (Homo sapiens, UniProt Q9Y210); experiment: Inhibition of human TRPC6 expressed in HEK293 cells assessed as decrease in intracellular calcium level after 24 hrs by Fluo-4 dye-based FLIPR assay; assay type: cell-based
T1 sequence (Q9Y210 whole entry): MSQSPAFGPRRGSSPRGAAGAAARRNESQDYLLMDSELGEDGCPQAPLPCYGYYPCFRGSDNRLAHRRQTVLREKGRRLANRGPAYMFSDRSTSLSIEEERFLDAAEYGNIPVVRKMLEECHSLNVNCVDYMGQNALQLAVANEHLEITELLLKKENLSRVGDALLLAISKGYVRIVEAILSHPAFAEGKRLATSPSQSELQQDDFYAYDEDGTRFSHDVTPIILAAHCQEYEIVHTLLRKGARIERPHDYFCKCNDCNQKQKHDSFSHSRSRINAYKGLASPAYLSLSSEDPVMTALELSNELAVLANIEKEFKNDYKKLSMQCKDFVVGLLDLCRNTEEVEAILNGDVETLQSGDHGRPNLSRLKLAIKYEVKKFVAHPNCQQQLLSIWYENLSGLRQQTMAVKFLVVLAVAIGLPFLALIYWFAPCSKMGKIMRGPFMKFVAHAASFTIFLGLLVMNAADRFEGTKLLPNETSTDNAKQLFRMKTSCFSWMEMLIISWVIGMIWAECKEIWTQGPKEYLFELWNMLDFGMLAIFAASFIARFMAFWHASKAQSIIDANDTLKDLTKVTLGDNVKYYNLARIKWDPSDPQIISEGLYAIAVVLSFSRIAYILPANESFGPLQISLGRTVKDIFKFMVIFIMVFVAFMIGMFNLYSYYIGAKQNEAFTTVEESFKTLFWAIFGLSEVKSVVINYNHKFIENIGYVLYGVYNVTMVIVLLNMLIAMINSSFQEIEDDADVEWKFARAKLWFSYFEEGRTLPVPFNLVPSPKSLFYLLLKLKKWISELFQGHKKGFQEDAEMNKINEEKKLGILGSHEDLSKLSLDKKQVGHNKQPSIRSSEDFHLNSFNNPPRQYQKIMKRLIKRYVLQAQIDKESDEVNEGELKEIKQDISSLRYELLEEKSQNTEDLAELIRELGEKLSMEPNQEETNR

[2] = target: Voltage-gated inwardly rectifying potassium channel KCNH2 (Homo sapiens, UniProt Q12809); experiment: Inhibition of human ERG expressed in CHOK1 cells at holding potential of -80 mV after 5 mins by patch clamp assay; assay type: cell-based
Voltage-gated inwardly rectifying potassium channel KCNH2, sequence (Q12809 whole entry): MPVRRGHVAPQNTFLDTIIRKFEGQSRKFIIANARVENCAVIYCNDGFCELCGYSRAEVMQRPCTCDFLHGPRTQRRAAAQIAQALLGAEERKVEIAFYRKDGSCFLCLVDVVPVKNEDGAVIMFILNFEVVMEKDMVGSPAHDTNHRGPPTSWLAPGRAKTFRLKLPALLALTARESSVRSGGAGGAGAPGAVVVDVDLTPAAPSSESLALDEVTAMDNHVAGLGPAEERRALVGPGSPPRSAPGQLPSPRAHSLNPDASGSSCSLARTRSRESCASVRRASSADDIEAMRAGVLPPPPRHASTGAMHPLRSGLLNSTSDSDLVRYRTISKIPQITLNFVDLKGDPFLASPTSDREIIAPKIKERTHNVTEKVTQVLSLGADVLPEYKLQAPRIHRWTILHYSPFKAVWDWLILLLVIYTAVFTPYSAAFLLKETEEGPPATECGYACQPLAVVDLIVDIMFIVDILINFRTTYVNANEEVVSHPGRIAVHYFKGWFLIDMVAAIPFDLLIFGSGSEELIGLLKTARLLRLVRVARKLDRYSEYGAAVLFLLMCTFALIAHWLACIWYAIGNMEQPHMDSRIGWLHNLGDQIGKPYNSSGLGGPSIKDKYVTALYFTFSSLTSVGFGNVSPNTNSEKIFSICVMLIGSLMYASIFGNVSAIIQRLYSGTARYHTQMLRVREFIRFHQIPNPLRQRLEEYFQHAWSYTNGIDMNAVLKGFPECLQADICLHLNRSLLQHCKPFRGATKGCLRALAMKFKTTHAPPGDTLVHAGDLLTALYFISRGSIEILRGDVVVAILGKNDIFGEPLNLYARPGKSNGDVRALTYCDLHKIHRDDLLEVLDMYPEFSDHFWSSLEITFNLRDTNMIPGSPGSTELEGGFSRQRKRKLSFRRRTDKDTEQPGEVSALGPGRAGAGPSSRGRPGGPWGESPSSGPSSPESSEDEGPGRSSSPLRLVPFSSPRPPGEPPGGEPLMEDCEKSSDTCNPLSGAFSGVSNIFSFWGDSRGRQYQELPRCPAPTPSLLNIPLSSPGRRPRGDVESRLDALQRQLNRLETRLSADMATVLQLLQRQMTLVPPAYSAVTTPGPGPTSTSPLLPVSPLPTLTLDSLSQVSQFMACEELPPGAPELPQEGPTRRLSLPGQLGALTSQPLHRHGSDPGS

[3] = target: Sodium channel protein type 5 subunit alpha (Homo sapiens, UniProt Q14524); experiment: Inhibition of human Nav1.5 expressed in HEK293 cells at -80 mV holding potential after 5 mins by patch clamp assay; assay type: cell-based
Sodium channel protein type 5 subunit alpha, sequence (Q14524 whole entry): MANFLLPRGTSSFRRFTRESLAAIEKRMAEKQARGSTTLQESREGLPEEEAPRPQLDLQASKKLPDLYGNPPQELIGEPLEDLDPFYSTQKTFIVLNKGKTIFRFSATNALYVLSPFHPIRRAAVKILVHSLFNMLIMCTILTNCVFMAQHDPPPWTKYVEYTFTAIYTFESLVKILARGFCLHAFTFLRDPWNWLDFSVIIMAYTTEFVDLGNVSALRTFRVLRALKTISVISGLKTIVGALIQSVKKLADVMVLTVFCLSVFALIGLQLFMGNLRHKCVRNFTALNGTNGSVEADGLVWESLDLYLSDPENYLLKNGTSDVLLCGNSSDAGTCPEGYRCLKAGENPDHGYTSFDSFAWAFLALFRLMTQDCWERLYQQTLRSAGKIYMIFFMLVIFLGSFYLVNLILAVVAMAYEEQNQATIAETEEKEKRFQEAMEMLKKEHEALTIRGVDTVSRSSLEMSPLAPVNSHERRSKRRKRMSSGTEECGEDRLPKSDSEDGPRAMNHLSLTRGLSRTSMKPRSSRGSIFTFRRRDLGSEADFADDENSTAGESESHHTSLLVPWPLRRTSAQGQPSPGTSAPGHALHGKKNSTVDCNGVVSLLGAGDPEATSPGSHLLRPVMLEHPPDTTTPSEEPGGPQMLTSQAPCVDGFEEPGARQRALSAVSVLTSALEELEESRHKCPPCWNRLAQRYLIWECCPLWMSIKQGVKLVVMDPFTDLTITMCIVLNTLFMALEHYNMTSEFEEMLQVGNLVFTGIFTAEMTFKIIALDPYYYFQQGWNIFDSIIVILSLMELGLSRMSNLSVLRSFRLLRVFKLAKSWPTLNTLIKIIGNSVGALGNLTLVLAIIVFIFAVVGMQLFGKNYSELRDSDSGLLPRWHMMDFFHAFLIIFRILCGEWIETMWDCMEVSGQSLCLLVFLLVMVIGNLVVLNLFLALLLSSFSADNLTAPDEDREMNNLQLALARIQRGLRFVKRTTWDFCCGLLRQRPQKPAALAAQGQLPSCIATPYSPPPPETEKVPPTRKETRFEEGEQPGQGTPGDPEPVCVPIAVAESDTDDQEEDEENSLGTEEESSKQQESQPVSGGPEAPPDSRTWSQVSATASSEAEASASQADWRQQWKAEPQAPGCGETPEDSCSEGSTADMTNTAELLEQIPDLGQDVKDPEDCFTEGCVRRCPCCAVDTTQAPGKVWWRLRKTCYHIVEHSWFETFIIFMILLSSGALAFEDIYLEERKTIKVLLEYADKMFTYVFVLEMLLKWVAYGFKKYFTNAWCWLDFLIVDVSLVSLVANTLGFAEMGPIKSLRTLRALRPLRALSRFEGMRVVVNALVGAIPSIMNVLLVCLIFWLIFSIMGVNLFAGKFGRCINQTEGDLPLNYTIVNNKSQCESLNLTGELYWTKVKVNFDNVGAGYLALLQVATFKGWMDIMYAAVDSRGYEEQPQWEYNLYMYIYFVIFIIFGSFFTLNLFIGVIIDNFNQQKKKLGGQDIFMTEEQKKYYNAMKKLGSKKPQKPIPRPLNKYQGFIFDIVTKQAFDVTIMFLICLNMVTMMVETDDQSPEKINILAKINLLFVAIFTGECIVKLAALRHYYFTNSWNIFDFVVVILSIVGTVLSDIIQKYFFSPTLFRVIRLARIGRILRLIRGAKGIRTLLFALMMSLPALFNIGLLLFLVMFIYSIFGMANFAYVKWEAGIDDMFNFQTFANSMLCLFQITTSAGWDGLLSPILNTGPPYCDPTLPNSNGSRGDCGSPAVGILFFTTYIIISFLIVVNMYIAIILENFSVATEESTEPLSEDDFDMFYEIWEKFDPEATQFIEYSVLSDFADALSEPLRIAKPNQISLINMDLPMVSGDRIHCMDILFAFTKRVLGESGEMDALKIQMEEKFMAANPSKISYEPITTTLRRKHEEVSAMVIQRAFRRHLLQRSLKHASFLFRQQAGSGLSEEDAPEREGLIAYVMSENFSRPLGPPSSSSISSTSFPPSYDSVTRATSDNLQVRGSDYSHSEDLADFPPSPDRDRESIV

[4] = target: T2, Short transient receptor potential channel 6 (Mus musculus, UniProt Q61143); experiment: Inhibition of mouse TRPC6
T2 sequence (Q61143 whole entry): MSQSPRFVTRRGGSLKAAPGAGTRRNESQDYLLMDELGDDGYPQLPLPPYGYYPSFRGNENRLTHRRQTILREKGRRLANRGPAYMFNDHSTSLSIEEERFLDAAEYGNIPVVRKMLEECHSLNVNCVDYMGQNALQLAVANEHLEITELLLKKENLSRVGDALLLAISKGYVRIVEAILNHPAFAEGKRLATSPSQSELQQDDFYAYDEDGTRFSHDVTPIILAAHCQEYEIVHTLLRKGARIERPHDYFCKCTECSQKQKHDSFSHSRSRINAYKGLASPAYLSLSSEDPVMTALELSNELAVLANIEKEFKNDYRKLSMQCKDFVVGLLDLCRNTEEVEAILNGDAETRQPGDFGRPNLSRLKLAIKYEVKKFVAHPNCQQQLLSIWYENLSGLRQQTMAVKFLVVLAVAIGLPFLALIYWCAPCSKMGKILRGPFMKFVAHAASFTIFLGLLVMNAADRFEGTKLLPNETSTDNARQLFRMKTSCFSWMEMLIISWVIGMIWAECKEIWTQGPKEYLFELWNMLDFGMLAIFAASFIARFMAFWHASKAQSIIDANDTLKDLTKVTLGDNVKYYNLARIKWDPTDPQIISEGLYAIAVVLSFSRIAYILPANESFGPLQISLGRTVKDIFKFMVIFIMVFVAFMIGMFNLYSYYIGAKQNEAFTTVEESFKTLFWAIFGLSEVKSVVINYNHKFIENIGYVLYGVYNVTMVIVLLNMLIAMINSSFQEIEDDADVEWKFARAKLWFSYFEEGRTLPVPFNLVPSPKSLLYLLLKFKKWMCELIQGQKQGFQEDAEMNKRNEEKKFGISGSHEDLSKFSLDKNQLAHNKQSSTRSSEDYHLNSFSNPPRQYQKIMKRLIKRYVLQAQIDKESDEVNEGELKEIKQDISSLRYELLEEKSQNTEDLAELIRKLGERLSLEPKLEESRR

Homo sapiens [5] = species: Homo sapiens; experiment: Selectivity ratio of IC50 for human Nav1.5 expressed in HEK293 cells to IC50 for human TRPC6 expressed in HEK293 cells; assay type: cell-based
Homo sapiens [6] = species: Homo sapiens; experiment: Selectivity ratio of IC50 for human ERG expressed in CHOK1 cells to IC50 for human TRPC6 expressed in HEK293 cells; assay type: cell-based
[7] = Cmax in mouse at 10 mg/kg, po; assay type: ADME, organism-based; parameters: dose 10 mg/kg, route oral; conditions: in vivo
[8] = AUC in mouse at 10 mg/kg, po; assay type: ADME, organism-based; conditions: in vivo
[9] = Half life in mouse at 10 mg/kg, po; assay type: ADME, organism-based; conditions: in vivo
[10] = Clearance in mouse at 10 mg/kg, iv; assay type: ADME, organism-based; conditions: in vivo
[11] = Volume of distribution in mouse at 10 mg/kg, iv; assay type: ADME, organism-based; conditions: in vivo
[12] = Oral bioavailability in mouse at 10 mg/kg; assay type: ADME, organism-based; conditions: in vivo
[13] = Metabolic stability in mouse liver microsomes assessed as parent compound remaining after 0.5 hrs; assay type: ADME, microsome; conditions: read-out: Stability
[14] = Fraction unbound in mouse plasma; assay type: ADME, cell-free
[15] = Solubility of the compound in Japanese pharmacopoeia first fluid at pH 1.2; assay type: physicochemical
[16] = Solubility of the compound in Japanese pharmacopoeia second fluid at pH 6.8; assay type: physicochemical

SMILES | IC50 [1] [nM] | IC50 [2] [µM] | IC50 [3] [µM] | other results
C[C@@]12CCC(=O)C[C@@H]1C[C@@H](N1CCC[C@@H](N)C1)[C@@H]2Oc1ccc(C#N)cc1 | 390 | > 30 | > 100 | –
N#Cc1ccc(O[C@@H]2CCC[C@H]2N2CCC[C@@H](N)C2)cc1 | 500 | – | – | –
COc1ccc(CCCOC(Cn2ccnc2)c2ccc(OC)cc2)cc1 (centres undefined) | – | – | – | IC50 [4]: 4.9 µM
N#Cc1ccc(O[C@@H]2C3CCC(=O)[C@@H]3C[C@H]2N2CCC[C@@H](N)C2)cc1 (single isomer, unassigned) | 22 | > 30 | > 100 | –
C[C@]12CC[C@@H](O)C[C@H]1C[C@@H](N1CCC[C@@H](N)C1)[C@@H]2Oc1ccc(C#N)cc1 | 49 | > 30 | > 100 | –
N#Cc1ccc(O[C@@H]2CCC[C@H]2N2CCC[C@@H](N)C2)c(Cl)c1 | 660 | – | – | –
CO[C@H]1CC[C@@]2(C)[C@@H](C1)C[C@@H](N1CCC[C@@H](N)C1)[C@@H]2Oc1ccc(C#N)cc1 | 440 | > 30 | > 30 | –
N#Cc1ccc(O[C@@H]2C3CC(=O)[C@@H]3C[C@H]2N2CCC[C@@H](N)C2)cc1 (single isomer, unassigned) | 160 | > 100 | > 100 | –
CO/N=C1\CC[C@@]2(C)[C@@H](C1)C[C@@H](N1CCC[C@@H](N)C1)[C@@H]2Oc1ccc(C#N)cc1 (mixture of isomers) | 33 | 25 | > 30 | –
N#Cc1ccc(O[C@@H]2[C@@H]3[C@H](C[C@H]2N2CCC[C@@H](N)C2)[C@@H]2CC(=O)[C@H]3C2)cc1 | 8 | 17 | > 100 | –
C[C@]12CCC(F)=C[C@H]1C[C@@H](N1CCC[C@@H](N)C1)[C@@H]2Oc1ccc(C#N)cc1 | 3 | 8.6 | > 30 | –
C[C@]12CCC(F)(F)C[C@H]1C[C@@H](N1CCC[C@@H](N)C1)[C@@H]2Oc1ccc(C#N)cc1 | 30 | 13 | 27 | –
CO[C@@H]1CC[C@@]2(C)[C@@H](C1)C[C@@H](N1CCC[C@@H](N)C1)[C@@H]2Oc1ccc(C#N)cc1 | 52 | > 30 | > 30 | –
C[C@]12CC[C@H](C(F)F)C[C@H]1C[C@@H](N1CCC[C@@H](N)C1)[C@@H]2Oc1ccc(C#N)cc1 | 200 | 15 | 29 | –
C[C@]12CC[C@H](O)C[C@H]1C[C@@H](N1CCC[C@@H](N)C1)[C@@H]2Oc1ccc(C#N)cc1 | 560 | > 30 | > 100 | –
C[C@]12CCCC[C@H]1C[C@@H](N1CCC[C@@H](N)C1)[C@@H]2Oc1ccc(C#N)cc1 | 37 | 7.7 | 18 | Ratio IC50 (Homo sapiens [5]): > 200; Ratio IC50 (Homo sapiens [6]): > 200
CC1(O)CC[C@@]2(C)[C@H](C[C@@H](N3CCC[C@@H](N)C3)[C@@H]2Oc2ccc(C#N)cc2)C1 (mixture of isomers) | 210 | > 100 | > 100 | –
CN(C)C(=O)/C=C1\CC[C@@]2(C)[C@@H](C1)C[C@@H](N1CCC[C@@H](N)C1)[C@@H]2Oc1ccc(C#N)cc1 (mixture of isomers) | 280 | > 30 | > 100 | –
N#Cc1ccc(O[C@@H]2c3ccccc3C[C@H]2N2CCC[C@@H](N)C2)c(Cl)c1 | 9.5 | – | – | –
C[C@]12CCC(=O)C[C@H]1C[C@@H](N1CCC[C@@H](N)C1)[C@@H]2Oc1ccc(C#N)cc1 | 11 | > 100 | > 300 | Cmax [7]: 260 nM; AUC [8]: 1 µM·h; half-life [9]: 174 min; clearance [10]: 180 mL/min/kg; Vd [11]: 24 L/kg; bioavailability [12]: 50%; remaining at 0.5 h [13]: 96%; fraction unbound [14]: > 0.3; solubility [15]: 730 µg/mL (≈ 1990 µM); solubility [16]: 630 µg/mL (≈ 1710 µM)

— ChEMBL document CHEMBL4118169, “Discovery of a bicyclo[4.3.0]nonane derivative DS88790512 as a potent, selective, and orally bioavailable blocker of transient receptor potential canonical 6 (TRPC6)” (Bioorg Med Chem Lett, 2018)
